Measurements: the supplement of paper PMC4932681

Legend:
BT-474 Tam1 [1] = assay: drug sensitivity score (DSS) (DSS (dimensionless)); higher = more sensitive; extreme values may be limits of the assay; details: 4-OH-tamoxifen in medium 1 µM; 72 h
Procedure, shortened: (§1)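 After seeding into 384-well plates with library drugs at five concentrations spanning a 10 000-fold range, breast cancer cell lines and their resistant derivatives were incubated 72 h at 37 °C. Resistant lines received medium with 1 μM of the selecting drug. CellTiter-Glo signal was read on a PHERAstar and scaled to vehicle-only and positive controls. Drug sensitivity score, relative IC50 (the curve midpoint) and top-dose inhibition came from logistic fits run in the Breeze pipeline.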

BT-474 Tam2 [2] = assay: as above; details: 4-OH-tamoxifen in medium 1 µM; 72 h
Procedure, shortened: as §1

BT-474 [3] = assay: as above; details: 72 h
Procedure, shortened: as §1

MCF-7 Tam1 [4] = assay: as above; details: 4-OH-tamoxifen in medium 1 µM; 72 h
Procedure, shortened: as §1

MCF-7 [5] = assay: as above; details: 72 h
Procedure, shortened: as §1

T-47D Tam1 [6] = assay: as above; details: 4-OH-tamoxifen in medium 1 µM; 72 h
Procedure, shortened: as §1

T-47D Tam2 [7] = assay: as above; details: 4-OH-tamoxifen in medium 1 µM; 72 h
Procedure, shortened: as §1

T-47D [8] = assay: as above; details: 72 h
Procedure, shortened: as §1

ZR-75-1 Tam1 [9] = assay: as above; details: 4-OH-tamoxifen in medium 1 µM; 72 h
Procedure, shortened: as §1

ZR-75-1 Tam2 [10] = assay: as above; details: 4-OH-tamoxifen in medium 1 µM; 72 h
Procedure, shortened: as §1

ZR-75-1 [11] = assay: as above; details: 72 h
Procedure, shortened: as §1

BT-474 Tam1 [12] = assay: relative IC50 (midpoint of fitted logistic curve, plateau may be below 50% inhibition; CellTiter-Glo viability); higher = less potent; details: 4-OH-tamoxifen in medium 1 µM; 72 h
Procedure, shortened: as §1

BT-474 [13] = assay: as above; details: 72 h
Procedure, shortened: as §1

MCF-7 Tam1 [14] = assay: as above; details: 4-OH-tamoxifen in medium 1 µM; 72 h
Procedure, shortened: as §1

T-47D Tam2 [15] = assay: as above; details: 4-OH-tamoxifen in medium 1 µM; 72 h
Procedure, shortened: as §1

T-47D [16] = assay: as above; details: 72 h
Procedure, shortened: as §1

ZR-75-1 Tam1 [17] = assay: as above; details: 4-OH-tamoxifen in medium 1 µM; 72 h
Procedure, shortened: as §1

ZR-75-1 Tam2 [18] = assay: as above; details: 4-OH-tamoxifen in medium 1 µM; 72 h
Procedure, shortened: as §1

ZR-75-1 [19] = assay: as above; details: 72 h
Procedure, shortened: as §1

BT-474 Tam2 [20] = assay: as above; details: 4-OH-tamoxifen in medium 1 µM; 72 h
Procedure, shortened: as §1

MCF-7 [21] = assay: as above; details: 72 h
Procedure, shortened: as §1

T-47D Tam1 [22] = assay: as above; details: 4-OH-tamoxifen in medium 1 µM; 72 h
Procedure, shortened: as §1

Compound `CN1CCN(c2nc(C3=C(c4c[nH]c5ccccc45)C(=O)NC3=O)c3ccccc3n2)CC1` [Sotrastaurin] has a drug sensitivity score (BT-474 Tam1 [1]) of 6.13, a drug sensitivity score (BT-474 Tam2 [2]) of 1.44 and a drug sensitivity score (BT-474 [3]; 4-OH-tamoxifen in medium 0 µM) of 0. It also gave a drug sensitivity score (BT-474 [3]; 4-OH-tamoxifen in medium 1 µM) of 10.6, a drug sensitivity score (MCF-7 Tam1 [4]) of 0 and a drug sensitivity score (MCF-7 [5]; 4-OH-tamoxifen in medium 0 µM) of 0.517. For the same compound, the drug sensitivity score (MCF-7 [5]; 4-OH-tamoxifen in medium 1 µM) was 0, the drug sensitivity score (T-47D Tam1 [6]) was 0 and the drug sensitivity score (T-47D Tam2 [7]) was 0. The drug sensitivity score (T-47D [8]; 4-OH-tamoxifen in medium 0 µM) was 0, the drug sensitivity score (T-47D [8]; 4-OH-tamoxifen in medium 1 µM) was 0 and the drug sensitivity score (ZR-75-1 Tam1 [9]) was 0. It also gave a drug sensitivity score (ZR-75-1 Tam2 [10]) of 0, a drug sensitivity score (ZR-75-1 [11]; 4-OH-tamoxifen in medium 0 µM) of 0 and a drug sensitivity score (ZR-75-1 [11]; 4-OH-tamoxifen in medium 1 µM) of 0. For the same compound, the “relative IC50” value (BT-474 Tam1 [12]) was 1540 nM, the “relative IC50” value (BT-474 [13]; 4-OH-tamoxifen in medium 0 µM) was over 10000 nM and the “relative IC50” value (BT-474 [13]; 4-OH-tamoxifen in medium 1 µM) was 51.5 nM. For the same compound, the “relative IC50” value (MCF-7 Tam1 [14]) was over 10000 nM, the “relative IC50” value (T-47D Tam2 [15]) was over 10000 nM and the “relative IC50” value (T-47D [16]; 4-OH-tamoxifen in medium 0 µM) was over 10000 nM. The “relative IC50” value (T-47D [16]; 4-OH-tamoxifen in medium 1 µM) was over 10000 nM, the “relative IC50” value (ZR-75-1 Tam1 [17]) was over 10000 nM and the “relative IC50” value (ZR-75-1 Tam2 [18]) was over 10000 nM. For the same compound, the “relative IC50” value (ZR-75-1 [19]; 4-OH-tamoxifen in medium 0 µM) was over 10000 nM and the “relative IC50” value (ZR-75-1 [19]; 4-OH-tamoxifen in medium 1 µM) was over 10000 nM.

In the case of `CC[C@]1(O)C[C@@H]2CN(CCc3c([nH]c4ccccc34)[C@@](C(=O)OC)(c3cc4c(cc3OC)N(C)[C@H]3[C@@](O)(C(=O)OC)[C@H](OC(C)=O)[C@]5(CC)C=CCN6CC[C@]43[C@@H]65)C2)C1` [Vinblastine], the drug sensitivity score (BT-474 Tam1 [1]) is reported as 13.1, the drug sensitivity score (BT-474 Tam2 [2]) is reported as 17.1 and the drug sensitivity score (BT-474 [3]; 4-OH-tamoxifen in medium 0 µM) is reported as 13.2. The drug sensitivity score (BT-474 [3]; 4-OH-tamoxifen in medium 1 µM) was 21.5, the drug sensitivity score (MCF-7 Tam1 [4]) was 0.0008 and the drug sensitivity score (MCF-7 [5]; 4-OH-tamoxifen in medium 0 µM) was 12.8. The drug sensitivity score (MCF-7 [5]; 4-OH-tamoxifen in medium 1 µM) was 12.5, the drug sensitivity score (T-47D Tam1 [6]) was 6.59 and the drug sensitivity score (T-47D Tam2 [7]) was 8.2. The drug sensitivity score (T-47D [8]; 4-OH-tamoxifen in medium 0 µM) was 2.77, the drug sensitivity score (T-47D [8]; 4-OH-tamoxifen in medium 1 µM) was 0.561 and the drug sensitivity score (ZR-75-1 Tam1 [9]) was 1.94. For the same compound, the drug sensitivity score (ZR-75-1 Tam2 [10]) was 3.58, the drug sensitivity score (ZR-75-1 [11]; 4-OH-tamoxifen in medium 0 µM) was 11.9 and the drug sensitivity score (ZR-75-1 [11]; 4-OH-tamoxifen in medium 1 µM) was 2.61. The “relative IC50” value (BT-474 Tam1 [12]) was 48.1 nM, the “relative IC50” value (BT-474 Tam2 [20]) was 24.4 nM and the “relative IC50” value (BT-474 [13]; 4-OH-tamoxifen in medium 0 µM) was 3.77 nM. The “relative IC50” value (BT-474 [13]; 4-OH-tamoxifen in medium 1 µM) was 9.7 nM, the “relative IC50” value (MCF-7 [21]; 4-OH-tamoxifen in medium 0 µM) was 9.94 nM and the “relative IC50” value (MCF-7 [21]; 4-OH-tamoxifen in medium 1 µM) was 13.8 nM. For the same compound, the “relative IC50” value (T-47D Tam1 [22]) was 69.2 nM, the “relative IC50” value (T-47D Tam2 [15]) was 44.2 nM and the “relative IC50” value (T-47D [16]; 4-OH-tamoxifen in medium 0 µM) was 113 nM. For the same compound, the “relative IC50” value (ZR-75-1 Tam1 [17]) was 214 nM, the “relative IC50” value (ZR-75-1 Tam2 [18]) was 78.9 nM and the “relative IC50” value (ZR-75-1 [19]; 4-OH-tamoxifen in medium 0 µM) was 4.23 nM. For the same compound, the “relative IC50” value (ZR-75-1 [19]; 4-OH-tamoxifen in medium 1 µM) was 174 nM.

Work on `CC(=O)O[C@@]12CO[C@@H]1C[C@H](O)[C@@]1(C)C(=O)[C@H](O)C3=C(C)[C@@H](OC(=O)[C@H](O)[C@@H](NC(=O)OC(C)(C)C)c4ccccc4)C[C@@](O)([C@@H](OC(=O)c4ccccc4)[C@H]21)C3(C)C` [Docetaxel] yielded a drug sensitivity score (BT-474 Tam1 [1]) of 10, a drug sensitivity score (BT-474 Tam2 [2]) of 3.99 and a drug sensitivity score (BT-474 [3]; 4-OH-tamoxifen in medium 0 µM) of 14. For the same compound, the drug sensitivity score (BT-474 [3]; 4-OH-tamoxifen in medium 1 µM) was 17.7, the drug sensitivity score (MCF-7 Tam1 [4]) was 0 and the drug sensitivity score (MCF-7 [5]; 4-OH-tamoxifen in medium 0 µM) was 7.56. It also gave a drug sensitivity score (MCF-7 [5]; 4-OH-tamoxifen in medium 1 µM) of 5.79, a drug sensitivity score (T-47D Tam1 [6]) of 8.38 and a drug sensitivity score (T-47D Tam2 [7]) of 10.8. It also gave a drug sensitivity score (T-47D [8]; 4-OH-tamoxifen in medium 0 µM) of 15.4, a drug sensitivity score (T-47D [8]; 4-OH-tamoxifen in medium 1 µM) of 0 and a drug sensitivity score (ZR-75-1 Tam1 [9]) of 0. The drug sensitivity score (ZR-75-1 Tam2 [10]) was 0, the drug sensitivity score (ZR-75-1 [11]; 4-OH-tamoxifen in medium 0 µM) was 0.389 and the drug sensitivity score (ZR-75-1 [11]; 4-OH-tamoxifen in medium 1 µM) was 0. For the same compound, the “relative IC50” value (BT-474 Tam1 [12]) was 6.72 nM, the “relative IC50” value (BT-474 [13]; 4-OH-tamoxifen in medium 0 µM) was 3.76 nM and the “relative IC50” value (BT-474 [13]; 4-OH-tamoxifen in medium 1 µM) was 3.83 nM. For the same compound, the “relative IC50” value (MCF-7 Tam1 [14]) was over 1000 nM, the “relative IC50” value (MCF-7 [21]; 4-OH-tamoxifen in medium 0 µM) was 1.23 nM and the “relative IC50” value (T-47D Tam2 [15]) was 4.21 nM. For the same compound, the “relative IC50” value (T-47D [16]; 4-OH-tamoxifen in medium 0 µM) was 1.76 nM, the “relative IC50” value (T-47D [16]; 4-OH-tamoxifen in medium 1 µM) was over 1000 nM and the “relative IC50” value (ZR-75-1 Tam1 [17]) was over 1000 nM. The “relative IC50” value (ZR-75-1 Tam2 [18]) was over 1000 nM and the “relative IC50” value (ZR-75-1 [19]; 4-OH-tamoxifen in medium 1 µM) was over 1000 nM.
